Assay results as given in patent US10828379B2, “In vivo differentiation of relative oxygen levels and tumor necrosis using divalent europium” (WAYNE STATE UNIVERSITY, priority 2015, dated 2020).

Tests used:
[1] = In vivo T1-weighted MRI after intravenous, intraperitoneal and subcutaneous injection; set-up: species or system mouse; conditions: liver, kidneys, bladder; equivalent dose for Gd control
Description: To test our hypothesis regarding the in vivo response of Eu^II-222, we acquired T1-weighted images of mice after administering Eu^II-222 (0.1 mL, 4 mM, europium dose of 3 mg/kg) through intravenous, intraperitoneal, and subcutaneous injections (FIG. 8). Mice were imaged prior to injection and at 3 and 8 min to compare responses with the three injection types. […] Although this observation is inconsistent with the low oxygen content of venous blood (relative to the peritoneal cavity), the circulation time of blood in a mouse is approximately 8 s (38). […] Therefore, the exchange between venous and arterial blood during circulation can explain our observations.
Studies in animals were carried out with the assistance of the Animal Model and Therapeutics Evaluation Core of the Barbara Ann Karmanos Cancer Institute after approval from the Wayne State University Institutional Animal Care and Use Committee. MRI scans were performed in the Elliman Clinical Research Building at Wayne State University with a 7 T Bruker Clinscan small animal MRI scanner equipped with a 30 cm bore. […]
For intravenous injections, mice were catheterized before being anesthetized with isoflurane. […] A correction volume (0.08 mL) was added to the calculated dose volumes for intravenous injections to account for the volume of the phosphate-buffered saline within the catheter. […]

[2] = test system: 4T1 mammary carcinoma; experiment: In vivo T1-weighted MRI after intratumoral injection, with histological staining; set-up: species or system mouse; conditions: bladder, liver, kidneys; Gd control 50 μL, 20.5 mM
Description: To test whether Eu^II-222Fb would enhance contrast in necrotic tissue, we performed T1-weighted MRI before and after intratumoral injection of Eu^II-222Fb (50 μL, 19.4 mM) into a 4T1 mammary carcinoma. The 4T1 carcinoma model is an aggressive tumor that typically develops a necrotic core,^[10] and imaging was performed when tumors reached approximately 700-1000 mg to maximize the probability of necrosis. Images were acquired before and at 3, 20, and 120 min after intratumoral injection (FIG. 3A-D). […]
To better understand the potential mechanism of differentiation, we performed an intratumoral injection of Eu^II-222Fb (50 μL, 6.9 mM) and monitored contrast enhancement over the course of 3 h before sacrificing the mouse and removing the injected tumor for analysis of Eu content by inductively coupled plasma mass spectrometry. […]
Studies in animals were carried out with the assistance of the Animal Model and Therapeutics Evaluation Core of the Barbara Ann Karmanos Cancer Institute after approval from the Wayne State University Institutional Animal Care and Use Committee. […] Animals were pooled, implanted bilaterally subcutaneously with 30-60 mg tumor fragments with a 12 gauge trocar, and imaged when tumors reached approximately 700-1000 mg in size (determined by caliper measurements: tumor mass (mg)≈[tumor length (mm)×tumor width^2 (mm^2)]/2). […]

For O=C([O-])CN(CCN(CC(=O)[O-])CC(=O)[O-])CCN(CC(=O)[O-])CC(=O)[O-].[Gd+3] [Gd^III-diethylenetriaminepentaacetate], the “contrast enhancement in organs associated with clearance after intravenous injection” value [1] was “positive contrast enhancement was observed in the kidneys within 3 min”.
In the case of “Gd^III-1,4,7,10-tetraazacyclododecane-1,4,7,10-tetraacetate”, the “contrast enhancement in organs associated with clearance after intratumoral injection” value [2] is reported as “bright with contrast within minutes of the injection”.
